#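 All cell lines were grown in 96-well plates and treated with compound for 48 hours. TGI denotes the concentration required for complete inhibition of growth.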
# Columns and labels:
# Experiment in all cases: NCI tumour cell line growth inhibition, 48 h
# SF-268 CNS = test system: SF-268 CNS
# HCT-116 colon = test system: HCT-116 colon
# SK-MEL-28 melanoma = test system: SK-MEL-28 melanoma
# NCI-H460 lung = test system: NCI-H460 lung
# K-562 leukemia = test system: K-562 leukemia
# NCI/ADR-RES ovarian = test system: NCI/ADR-RES ovarian
# RXF 393 renal = test system: RXF 393 renal
# T-47D breast = test system: T-47D breast
# UACC-62 melanoma = test system: UACC-62 melanoma
# SNB-75 CNS = test system: SNB-75 CNS
# SF-295 CNS = test system: SF-295 CNS
# MCF7 breast = test system: MCF7 breast
# HT29 colon = test system: HT29 colon
# NCI-H226 lung = test system: NCI-H226 lung
# SF-539 CNS = test system: SF-539 CNS
# HCC-2998 colon = test system: HCC-2998 colon
# HCT-15 colon = test system: HCT-15 colon
# UACC-257 melanoma = test system: UACC-257 melanoma
# MALME-3M melanoma = test system: MALME-3M melanoma
# OVCAR-3 ovarian = test system: OVCAR-3 ovarian
# SR leukemia = test system: SR leukemia
# OVCAR-8 ovarian = test system: OVCAR-8 ovarian
# CAKI-1 renal = test system: CAKI-1 renal
# RPMI-8226 leukemia = test system: RPMI-8226 leukemia
# DU-145 prostate = test system: DU-145 prostate
# EKVX NSCLC = test system: EKVX NSCLC
# MOLT-4 leukemia = test system: MOLT-4 leukemia
# OVCAR-5 ovarian = test system: OVCAR-5 ovarian
# SK-MEL-2 melanoma = test system: SK-MEL-2 melanoma
# KM12 colon = test system: KM12 colon
# 786-0 renal = test system: 786-0 renal
# BT-549 breast = test system: BT-549 breast
# SK-OV-3 ovarian = test system: SK-OV-3 ovarian
# HOP-92 NSCLC = test system: HOP-92 NSCLC
# OVCAR-4 ovarian = test system: OVCAR-4 ovarian
# IGROV1 ovarian = test system: IGROV1 ovarian
# TK-10 renal = test system: TK-10 renal
# LOX IMVI melanoma = test system: LOX IMVI melanoma
# U251 CNS = test system: U251 CNS
# A498 renal = test system: A498 renal
# CCRF-CEM leukemia = test system: CCRF-CEM leukemia
# SN12C renal = test system: SN12C renal
# HOP-62 NSCLC = test system: HOP-62 NSCLC
# HL-60(TB) leukemia = test system: HL-60(TB) leukemia
# SW-620 colon = test system: SW-620 colon
# COLO 205 colon = test system: COLO 205 colon
# MDA-MB-435 = test system: MDA-MB-435
# SNB-19 CNS = test system: SNB-19 CNS
# PC-3 prostate = test system: PC-3 prostate
# A549 NSCLC = test system: A549 NSCLC
# ACHN renal = test system: ACHN renal
# NCI-H23 lung = test system: NCI-H23 lung
# MDA-N = test system: MDA-N
# M14 melanoma = test system: M14 melanoma
# SK-MEL-5 melanoma = test system: SK-MEL-5 melanoma
# MDA-MB-231 breast = test system: MDA-MB-231 breast
# UO-31 renal = test system: UO-31 renal
# HS 578T breast = test system: HS 578T breast
# NCI-H522 lung = test system: NCI-H522 lung
structure (smiles),measurement,setting,value
N#CC(=S)Nc1ccc(F)cc1,TGI,SF-268 CNS,> 100 µM
same,TGI,HCT-116 colon,> 100 µM
same,TGI,SK-MEL-28 melanoma,> 100 µM
same,TGI,NCI-H460 lung,> 100 µM
same,TGI,K-562 leukemia,> 100 µM
same,TGI,NCI/ADR-RES ovarian,> 100 µM
same,TGI,RXF 393 renal,> 100 µM
same,TGI,T-47D breast,> 100 µM
same,TGI,UACC-62 melanoma,> 100 µM
same,TGI,SNB-75 CNS,> 100 µM
same,TGI,SF-295 CNS,> 100 µM
same,TGI,MCF7 breast,> 100 µM
same,TGI,HT29 colon,> 100 µM
same,TGI,NCI-H226 lung,> 100 µM
same,TGI,SF-539 CNS,> 100 µM
same,TGI,HCC-2998 colon,> 100 µM
same,TGI,HCT-15 colon,> 100 µM
same,TGI,UACC-257 melanoma,> 100 µM
same,TGI,MALME-3M melanoma,> 100 µM
same,TGI,OVCAR-3 ovarian,> 100 µM
same,TGI,SR leukemia,> 100 µM
same,TGI,OVCAR-8 ovarian,> 100 µM
same,TGI,CAKI-1 renal,> 100 µM
same,TGI,RPMI-8226 leukemia,41.6 µM
same,TGI,DU-145 prostate,> 100 µM
same,TGI,EKVX NSCLC,> 100 µM
same,TGI,MOLT-4 leukemia,> 100 µM
same,TGI,OVCAR-5 ovarian,> 100 µM
same,TGI,SK-MEL-2 melanoma,> 100 µM
same,TGI,KM12 colon,> 100 µM
same,TGI,786-0 renal,> 100 µM
same,TGI,BT-549 breast,> 100 µM
same,TGI,SK-OV-3 ovarian,> 100 µM
same,TGI,HOP-92 NSCLC,68.3 µM
same,TGI,OVCAR-4 ovarian,> 100 µM
same,TGI,IGROV1 ovarian,> 100 µM
same,TGI,TK-10 renal,> 100 µM
same,TGI,LOX IMVI melanoma,> 100 µM
same,TGI,U251 CNS,> 100 µM
same,TGI,A498 renal,90.5 µM
same,TGI,CCRF-CEM leukemia,54.9 µM
same,TGI,SN12C renal,> 100 µM
same,TGI,HOP-62 NSCLC,> 100 µM
same,TGI,HL-60(TB) leukemia,91.3 µM
same,TGI,SW-620 colon,> 100 µM
same,TGI,COLO 205 colon,> 100 µM
same,TGI,MDA-MB-435,> 100 µM
same,TGI,SNB-19 CNS,> 100 µM
same,TGI,PC-3 prostate,> 100 µM
same,TGI,A549 NSCLC,> 100 µM
same,TGI,ACHN renal,> 100 µM
same,TGI,NCI-H23 lung,> 100 µM
same,TGI,MDA-N,> 100 µM
same,TGI,M14 melanoma,> 100 µM
same,TGI,SK-MEL-5 melanoma,75.8 µM
same,TGI,MDA-MB-231 breast,> 100 µM
Cc1[nH]c(=O)[nH]c(=O)c1C(=O)N(CCO)Cc1ccccc1,TGI,SF-268 CNS,> 100 µM
same,TGI,HCT-116 colon,> 100 µM
same,TGI,SK-MEL-28 melanoma,> 100 µM
same,TGI,NCI-H460 lung,> 100 µM
same,TGI,K-562 leukemia,> 100 µM
same,TGI,RXF 393 renal,83.6 µM
same,TGI,T-47D breast,> 100 µM
same,TGI,UACC-62 melanoma,> 100 µM
same,TGI,UO-31 renal,> 100 µM
same,TGI,SF-295 CNS,> 100 µM
same,TGI,MCF7 breast,> 100 µM
same,TGI,HT29 colon,> 100 µM
same,TGI,NCI-H226 lung,43.9 µM
same,TGI,SF-539 CNS,> 100 µM
same,TGI,HCC-2998 colon,> 100 µM
same,TGI,HCT-15 colon,> 100 µM
same,TGI,UACC-257 melanoma,> 100 µM
same,TGI,MALME-3M melanoma,> 100 µM
same,TGI,OVCAR-3 ovarian,> 100 µM
same,TGI,SR leukemia,> 100 µM
same,TGI,RPMI-8226 leukemia,> 100 µM
same,TGI,DU-145 prostate,> 100 µM
same,TGI,EKVX NSCLC,> 100 µM
same,TGI,MOLT-4 leukemia,> 100 µM
same,TGI,OVCAR-5 ovarian,> 100 µM
same,TGI,SK-MEL-2 melanoma,> 100 µM
same,TGI,KM12 colon,> 100 µM
same,TGI,BT-549 breast,> 100 µM
same,TGI,SK-OV-3 ovarian,> 100 µM
same,TGI,HOP-92 NSCLC,> 100 µM
same,TGI,OVCAR-4 ovarian,99.7 µM
same,TGI,IGROV1 ovarian,> 100 µM
same,TGI,TK-10 renal,> 100 µM
same,TGI,LOX IMVI melanoma,> 100 µM
same,TGI,U251 CNS,> 100 µM
same,TGI,HS 578T breast,41.9 µM
same,TGI,A498 renal,> 100 µM
same,TGI,CCRF-CEM leukemia,> 100 µM
same,TGI,SN12C renal,> 100 µM
same,TGI,HOP-62 NSCLC,> 100 µM
same,TGI,HL-60(TB) leukemia,> 100 µM
same,TGI,NCI-H522 lung,> 100 µM
same,TGI,SW-620 colon,> 100 µM
same,TGI,COLO 205 colon,45.7 µM
same,TGI,MDA-MB-435,> 100 µM
same,TGI,SNB-19 CNS,> 100 µM
same,TGI,PC-3 prostate,94.8 µM
same,TGI,ACHN renal,> 100 µM
same,TGI,NCI-H23 lung,> 100 µM
same,TGI,MDA-N,> 100 µM
same,TGI,M14 melanoma,> 100 µM
same,TGI,MDA-MB-231 breast,> 100 µM
C=C(COC(=O)C(C)C)[C@H]1Oc2ccc(C(C)=O)cc2[C@@H]1OC(=O)C(C)C,TGI,SF-268 CNS,> 100 µM
same,TGI,HCT-116 colon,> 100 µM
same,TGI,SK-MEL-28 melanoma,> 100 µM
same,TGI,NCI-H460 lung,> 100 µM
same,TGI,K-562 leukemia,> 100 µM
same,TGI,RXF 393 renal,> 100 µM
same,TGI,T-47D breast,> 100 µM
same,TGI,UACC-62 melanoma,> 100 µM
same,TGI,UO-31 renal,> 100 µM
same,TGI,SNB-75 CNS,> 100 µM
same,TGI,SF-295 CNS,> 100 µM
same,TGI,MCF7 breast,> 100 µM
same,TGI,HT29 colon,> 100 µM
same,TGI,NCI-H226 lung,> 100 µM
same,TGI,SF-539 CNS,> 100 µM
same,TGI,HCC-2998 colon,> 100 µM
same,TGI,HCT-15 colon,> 100 µM
same,TGI,UACC-257 melanoma,> 100 µM
same,TGI,MALME-3M melanoma,> 100 µM
same,TGI,OVCAR-3 ovarian,> 100 µM
same,TGI,SR leukemia,> 100 µM
same,TGI,OVCAR-8 ovarian,> 100 µM
same,TGI,CAKI-1 renal,> 100 µM
same,TGI,RPMI-8226 leukemia,> 100 µM
same,TGI,DU-145 prostate,> 100 µM
same,TGI,EKVX NSCLC,> 100 µM
same,TGI,MOLT-4 leukemia,> 100 µM
same,TGI,OVCAR-5 ovarian,> 100 µM
same,TGI,SK-MEL-2 melanoma,> 100 µM
same,TGI,KM12 colon,> 100 µM
same,TGI,786-0 renal,> 100 µM
same,TGI,BT-549 breast,> 100 µM
same,TGI,SK-OV-3 ovarian,> 100 µM
same,TGI,OVCAR-4 ovarian,> 100 µM
same,TGI,IGROV1 ovarian,> 100 µM
same,TGI,TK-10 renal,> 100 µM
same,TGI,LOX IMVI melanoma,> 100 µM
same,TGI,U251 CNS,> 100 µM
same,TGI,HS 578T breast,> 100 µM
same,TGI,CCRF-CEM leukemia,> 100 µM
same,TGI,SN12C renal,> 100 µM
same,TGI,HOP-62 NSCLC,> 100 µM
same,TGI,HL-60(TB) leukemia,> 100 µM
same,TGI,SW-620 colon,> 100 µM
same,TGI,COLO 205 colon,> 100 µM
same,TGI,MDA-MB-435,> 100 µM
same,TGI,SNB-19 CNS,> 100 µM
same,TGI,PC-3 prostate,> 100 µM
same,TGI,A549 NSCLC,> 100 µM
same,TGI,ACHN renal,> 100 µM
same,TGI,NCI-H23 lung,> 100 µM
same,TGI,MDA-N,> 100 µM
same,TGI,M14 melanoma,> 100 µM
same,TGI,SK-MEL-5 melanoma,> 100 µM
same,TGI,MDA-MB-231 breast,> 100 µM
c1cn[nH]c1,TGI,SF-268 CNS,> 10 µM
same,TGI,HCT-116 colon,> 10 µM
same,TGI,SK-MEL-28 melanoma,> 10 µM
same,TGI,NCI-H460 lung,> 10 µM
same,TGI,K-562 leukemia,> 10 µM
same,TGI,NCI/ADR-RES ovarian,> 10 µM
same,TGI,RXF 393 renal,> 10 µM
same,TGI,T-47D breast,> 10 µM
same,TGI,UACC-62 melanoma,> 10 µM
same,TGI,UO-31 renal,> 10 µM
same,TGI,SNB-75 CNS,> 10 µM
same,TGI,SF-295 CNS,> 10 µM
same,TGI,MCF7 breast,> 10 µM
same,TGI,HT29 colon,> 10 µM
same,TGI,NCI-H226 lung,> 10 µM
same,TGI,SF-539 CNS,> 10 µM
same,TGI,HCC-2998 colon,> 10 µM
same,TGI,HCT-15 colon,> 10 µM
same,TGI,MALME-3M melanoma,> 10 µM
same,TGI,OVCAR-3 ovarian,> 10 µM
same,TGI,SR leukemia,> 10 µM
same,TGI,OVCAR-8 ovarian,> 10 µM
same,TGI,RPMI-8226 leukemia,> 10 µM
same,TGI,EKVX NSCLC,> 10 µM
same,TGI,MOLT-4 leukemia,> 10 µM
same,TGI,SK-MEL-2 melanoma,> 10 µM
same,TGI,KM12 colon,> 10 µM
same,TGI,786-0 renal,> 10 µM
same,TGI,SK-OV-3 ovarian,> 10 µM
same,TGI,HOP-92 NSCLC,> 10 µM
same,TGI,OVCAR-4 ovarian,> 10 µM
same,TGI,IGROV1 ovarian,> 10 µM
same,TGI,TK-10 renal,> 10 µM
same,TGI,LOX IMVI melanoma,> 10 µM
same,TGI,U251 CNS,> 10 µM
same,TGI,HS 578T breast,> 10 µM
same,TGI,A498 renal,> 10 µM
same,TGI,CCRF-CEM leukemia,> 10 µM
same,TGI,SN12C renal,> 10 µM
same,TGI,HOP-62 NSCLC,> 10 µM
same,TGI,HL-60(TB) leukemia,> 10 µM
same,TGI,SW-620 colon,> 10 µM
same,TGI,COLO 205 colon,> 10 µM
same,TGI,MDA-MB-435,> 10 µM
same,TGI,SNB-19 CNS,> 10 µM
same,TGI,PC-3 prostate,> 10 µM
same,TGI,A549 NSCLC,> 10 µM
same,TGI,ACHN renal,> 10 µM
same,TGI,NCI-H23 lung,> 10 µM
same,TGI,MDA-N,> 10 µM
same,TGI,SK-MEL-5 melanoma,> 10 µM

# From PubChem BioAssay (NCI)
